Experimental findings from PubChem BioAssay AID743506 (Broad Institute, 2014) are described below.

Structures are written as SMILES. The source made the active and inactive calls.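 How the source made its calls: active means compounds that block the bursicon-driven reporter signal with IC50 below 35000 nM; inactive means the rest.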

The target of the assay is Bursicon receptor (LGR2/rickets), Drosophila melanogaster. The experiment in a line: LGR2 bursicon receptor antagonists, dose response, cell-based, HEK293, CRE-luciferase, beta-gal normalized, dry powder, set 3 (AID 743506). Conditions: bursicon-stimulated, 4 h.
What is called IC50 is the concentration that gives 50% inhibition. With `C[C@H](CO)N1C[C@H](C)[C@H](CN(C)C(=O)Nc2ccccc2)OCCCC[C@H](C)Oc2ccc(NC(=O)C3CCCCC3)cc2C1=O`, the IC50 was less than 35 µM.
The value for `C[C@H](CO)N1C[C@H](C)[C@H](CN(C)C(=O)Nc2ccc(F)cc2)OCCCC[C@H](C)Oc2ccc(NC(=O)C3CCCCC3)cc2C1=O` was less than 35 µM; that for `COc1ccc(NC(=O)N(C)C[C@@H]2OCCCC[C@H](C)Oc3ccc(NC(=O)C4CCCCC4)cc3C(=O)N([C@H](C)CO)C[C@@H]2C)cc1` was less than 35 µM.
Take `C[C@@H]1CCCCO[C@H](CN(C)C(=O)Nc2ccc(F)cc2)[C@H](C)CN([C@@H](C)CO)C(=O)c2cc(NC(=O)C3CCCCC3)ccc2O1`: the IC50 was > 35 µM (inactive).
Next, `C[C@H](CO)N1C[C@H](C)[C@H](CN(C)C(=O)Nc2ccc3c(c2)OCO3)OCCCC[C@H](C)Oc2ccc(NC(=O)C3CCCCC3)cc2C1=O`: less than 35 µM.
